The values that follow come from patent US20040167199A1, “Methods of using and compositions comprising (-)-3-(3,4-dimethoxy-phenyl)-3-(1-oxo-1,3-dihydro-isoindol-2-yl)-propionamide” (Celgene Corporation, priority 2002, published 2004).

The test system of series [1] is PDE4 enzyme purified from U937 human monocytic cells. The series is described as follows: PDE4 inhibition (enzyme purified from U937 cells). Type of series: biochemical. The conditions noted are these: 1 μM cAMP, 30 min at 30° C. The procedure: PDE4 enzyme was purified from U937 human monocytic cells by gel filtration chromatography as previously described (Muller et al. 1998, Bioorg. & Med Chem Lett 8:2669-2674). Phosphodiesterase reactions were carried out in 50 mM Tris HCl pH 7.5, 5 mM MgCl2, 1 μM cAMP, 10 nM [^311)-cAMP for 30 min at 30° C., terminated by boiling, treated with 1 mg/ml snake venom, and separated using AG-IXS ion exchange resin (BioRad) as described (Muller et al. 1998, Bioorg. & Med Chem Lett 8:2669-2674). Reactions consumed less than 15% of available substrate.

A further series deals with bovine PDE1. The series is described as follows: PDE selectivity, single concentration, PDE1. Type of series: biochemical. The conditions noted are these: for PDE Specificity Ratio PDE1/PDE4: from above data. The procedure: (§1) The specificity of compounds for specific PDE's was assessed by testing at a single concentration (100 μM) against bovine PDE1, human PDE2, PDE3, and PDE5 from human platelets (Hidaka and Asano 1976, Biochem. Biophys. Acta 429:485, and Nicholsen et al. 1991, Trends Pharmaco. Sci. 12:19).

Series [2] can be described thus: Pharmacokinetics after oral administration in female rats. The conditions noted are these: rat, in vivo, 80 mg/kg oral in aqueous CMC. An excerpt: Table III presents plasma concentration data (ng/mL) taken at 0.5 hr., 1 hr., 2 hrs., 4 hrs., 7 hrs., 10 hrs. and 24 hrs. following the administration, Cmax, Tmax and AUC.
Series [3] has as its system LPS-induced TNF-α production from human PBMC. The series is described as follows: LPS-induced TNF-α production from human PBMC. The class given is cell-based. The conditions noted are these: LPS 100 ng/ml, 18-20 hours, ELISA. As for the experimental part: Lipopolysaccharide (LPS) is an endotoxin produced by gram-negative bacteria such as E. coli which induces production of many pro-inflammatory cytokines, including TNF-α In peripheral blood mononuclear cells (PBMC), the TNF-α produced in response to LPS is derived from monocytes, which comprise approximately 5-20% of the total PBMC. Compounds were tested for the ability to inhibit LPS-induced TNF-α production from human PBMC as previously described (Muller et al. 1996, J. Med Chem. 39:3238). PBMC from normal donors were obtained by Ficoll Hypaque (Pharmacia, Piscataway, N.J., USA) density centrifugation. Cells were cultured in RPMI (Life Technologies, Grand Island, N.Y., USA) supplemented with 10% AB± human serum (Gemini Bio-products, Woodland, Calif., USA), 2 mM L-glutamine, 100 U/ml penicillin, and 100 μg/ml streptomycin (Life Technologies).
PBMC (2×10^5 cells) were plated in 96-well flat-bottom Costar tissue culture plates (Coming, N.Y., USA) in triplicate. Cells were stimulated with LPS (Sigma, St. Louis, Mo., USA) at 100 ng/ml in the absence or presence of compounds. Compounds (Celgene Corp., Warren, N.J., USA) were dissolved in DMSO (Sigma) and further dilutions were done in culture medium immediately before use. The final DMSO concentration in all samples was 0.25%. Compounds were added to cells 1 hour before LPS stimulation. […]
On the technique in general: In an ELISA, binding on a coated surface is turned into a signal by an enzyme label.

For series [4], the system named is PDE3 from human platelets. The series is described as follows: PDE selectivity, single concentration, PDE3. Type of series: biochemical. The conditions noted are these: for PDE Specificity Ratio PDE3/PDE4: from above data. As for the experimental part: as §1
Series [5] has as its target T1, PDE5 from human platelets (Homo sapiens, UniProt O76074).
T1 construct: PDE3, and PDE5 from human platelets; from tissue; host or cells: human platelets
The series is described as follows: PDE selectivity, single concentration, PDE5. The conditions noted are these: for PDE Specificity Ratio PDE5/PDE4: from above data; for inhibition at 100 µM: read-out: PDE5 (% inhib at 100 μM). The class given is biochemical. As for the experimental part: as §1

In series [6] the test system is IL-1β-induced TNF-α production from human PBMC. The series is described as follows: IL-1β-induced TNF-α production from human PBMC. The conditions noted are these: recombinant human IL-1β 50 ng/ml, 18 hours. The class given is cell-based. The procedure:
During the course of inflammatory diseases, TNF-α production is often stimulated by the cytokine IL-1β, rather than by bacterially derived LPS. Compounds are tested for the ability to inhibit EL-1β-induced TNF-α production from human PBMC as described above for LPS-induced TNF-α production, except that the PBMC are isolated from source leukocyte units (Sera-Tec Biologicals, North Brunswick, N.J., USA) by centrifugation on Ficoll-Paque Plus (Amersham Pharmacia, Piscataway, N.J., USA), plated in 96-well tissue culture plates at 3×10^5 cells/well in RPMI-1640 medium (BioWhittaker, Walkersville, Md., USA) containing 10% heat-inactivated fetal bovine serum (Hyclone), 2 mM L-glutamine, 100 U/ml penicillin, and […] (complete medium), pretreated with compounds at 10, 2, 0.4, 0.08, 0.016, 0.0032, 0.00064, and 0 μM in duplicate at a final DMSO concentration of 0.1% at 37° C. in a humidified incubator at 5% CO2 for 1 hour, then stimulated with 50 ng/ml recombinant human IL-1β (Endogen) for 18 hours.

For another series, the target named is human PDE2 (Homo sapiens, UniProt O00408). The series is described as follows: PDE selectivity, single concentration, PDE2. Type of series: biochemical. The procedure:
as §1

Sequence of human PDE2 (O00408 whole entry): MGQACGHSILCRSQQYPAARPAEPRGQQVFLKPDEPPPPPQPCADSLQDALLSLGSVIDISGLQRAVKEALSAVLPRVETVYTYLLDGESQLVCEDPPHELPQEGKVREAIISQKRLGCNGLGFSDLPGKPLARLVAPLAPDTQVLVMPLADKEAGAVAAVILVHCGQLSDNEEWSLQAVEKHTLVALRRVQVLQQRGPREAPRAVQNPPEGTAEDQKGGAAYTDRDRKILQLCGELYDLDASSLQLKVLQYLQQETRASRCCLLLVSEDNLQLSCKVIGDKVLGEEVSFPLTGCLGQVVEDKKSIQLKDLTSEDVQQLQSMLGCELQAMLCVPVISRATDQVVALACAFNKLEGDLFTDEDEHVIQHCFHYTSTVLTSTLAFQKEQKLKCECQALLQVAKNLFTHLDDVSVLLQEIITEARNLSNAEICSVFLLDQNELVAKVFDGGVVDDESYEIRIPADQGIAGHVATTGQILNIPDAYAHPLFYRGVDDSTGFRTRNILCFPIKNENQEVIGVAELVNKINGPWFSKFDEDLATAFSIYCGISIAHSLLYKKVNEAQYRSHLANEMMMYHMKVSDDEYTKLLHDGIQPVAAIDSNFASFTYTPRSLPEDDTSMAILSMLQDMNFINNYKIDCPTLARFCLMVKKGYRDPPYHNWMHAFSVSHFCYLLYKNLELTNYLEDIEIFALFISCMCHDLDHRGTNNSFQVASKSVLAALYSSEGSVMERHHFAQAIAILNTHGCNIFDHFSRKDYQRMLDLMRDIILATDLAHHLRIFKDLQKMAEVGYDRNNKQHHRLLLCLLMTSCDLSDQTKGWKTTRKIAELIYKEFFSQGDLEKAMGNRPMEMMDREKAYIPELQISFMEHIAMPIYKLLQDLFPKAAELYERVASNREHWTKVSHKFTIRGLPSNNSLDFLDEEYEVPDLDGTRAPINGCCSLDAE

Regarding `COc1ccc(C(CC(N)=O)N2Cc3ccccc3C2=O)cc1OC` (racemic) [Racemic Compound, 3-(3,4-dimethoxy-phenyl)-3-(1-oxo-1,3-dihydro-isoindol-2-yl)-propionamide], in series [1], the IC50 was found to be 15 µM. In addition, in the series on bovine PDE1, the “PDE1 (% inhib at 100 μM)” value came to 20% and the “PDE Specificity Ratio PDE1/PDE4” value is above 4.8 fold. Besides, the concentration at 0 h in series [2] (0 hour, read-out: plasma concentration) was 0 ng/mL. In series [2], the AUC is 44200 ng·h/mL, the Cmax is 4910 ng/mL and the Tmax came to 2 h. Moreover, in series [2] (0.5 hour, read-out: plasma concentration), the concentration at 0.5 h turned out to be 3900 ng/mL. Further, the concentration at 1 h in series [2] (1 hour, read-out: plasma concentration) is 4600 ng/mL. For the same compound, in series [2] (2 hours, read-out: plasma concentration), the concentration at 2 h was 4120 ng/mL. The concentration at 4 h in series [2] (4 hours, read-out: plasma concentration) amounted to 2980 ng/mL. Moreover, the concentration at 7 h in series [2] (7 hours, read-out: plasma concentration) amounted to 2520 ng/mL. Besides, the concentration at 10 h in series [2] (10 hours, read-out: plasma concentration) came to 2060 ng/mL. For the same compound, the concentration at 24 h in series [2] (24 hours, read-out: plasma concentration) was 9.2 ng/mL. This compound also gave a 50% inhibitory concentration (IC50) in series [3] of 21 µM. In series [4], the “PDE3 (% inhib at 100 μM)” value turned out to be 51% and the “PDE Specificity Ratio PDE3/PDE4” value was “˜4.8 fold”. Further, in series [5], the “PDE Specificity Ratio PDE5/PDE4” value was above 4.8 fold and the inhibition at 100 µM was 14%. In addition, the IC50 in series [6] was 16 µM.
`COc1ccc(C(CC(N)=O)N2Cc3ccccc3C2=O)cc1OC` (single isomer, unassigned; (+)) [Compound B, (+)-3-(3,4-dimethoxy-phenyl)-3-(1-oxo-1,3-dihydro-isoindol-2-yl)-propionamide] returned an IC50 in series [1] of 67 µM. Also, in the series on bovine PDE1, the “PDE1 (% inhib at 100 μM)” value is given as 47% and the “PDE Specificity Ratio PDE1/PDE4” value is reported as “˜1 fold”. In series [3], this compound registered an IC50 of 100 µM. In addition, in series [4], the “PDE3 (% inhib at 100 μM)” value was 50% and the “PDE Specificity Ratio PDE3/PDE4” value is recorded as “˜1 fold”. Further, at human PDE2 (from above data), the “PDE Specificity Ratio PDE2/PDE4” value is above 1 fold. The inhibition at 100 µM on human PDE2 (read-out: PDE2 (% inhib at 100 μM)) was determined as 22%. Moreover, in series [5], the “PDE Specificity Ratio PDE5/PDE4” value was above 1 fold and the inhibition at 100 µM stood at 5%. Further, the IC50 in series [6] was determined as 86 µM.

By IC50 is commonly meant the point on the concentration scale where inhibition reaches its midpoint. Broadly, the AUC is concentration integrated over time. Low readings indicate low exposure, high ones high exposure. A word on the Cmax: it is the highest concentration seen after dosing. As a reminder, the Tmax is the time from dosing to the highest level.
